{"source": "patent US20100144819A1", "about": "“Synergistic Methods for Control of Pests” (FMC A[…]. LTD., priority 2008, published 2010)", "key": {"[1]": {"tested_on": "German cockroach (Blatella germanica)", "test": "German cockroach mortality on treated filter paper", "assay_type": "in vivo, Blattella germanica", "conditions": "24 h", "description": "(§1) The presence of a synergistic effect between the two active ingredients is established with the aid of the Colby equation (see Colby, S. R., “Calculating Synergistic and Antagonistic Responses of Herbicide Combinations”, Weeds 1967, 15, pg 20-22): E=X+Y−(XY/100).\n(§2) Using the method of Colby, the presence of asynergistic interaction between two active ingredients is established by first calculating the expected activity, ‘E’, of the mixture based on activities of the two components applied alone. If ‘E’ is lower than the observed activity, synergy is present. In the equation above, ‘X’ is the percentage control observed when bifenthrin applied alone at rate ‘x’. The ‘Y’ term is percentage control observed when fipronil applied alone at rate ‘y’. The equation calculates ‘E’, the expected activity of the mixture of ‘X’ at rate ‘x’ with ‘Y’ at rate ‘y’ if their effects are strictly additive and no interaction has occurred.\nThe compositions of the present invention were tested for German cockroach (Blatella germanica) activity in the following manner.\nTest solutions were made by dissolving technical grade bifenthrin and fipronil in acetone to provide appropriate rates of application of bifenthrin and fipronil alone, as well as combinations of bifenthrin and fipronil. The active ingredient concentrations tested were from 50 parts per million (0.05 mg of active ingredient/mL or 0.05 g/L) to 500 parts per million (0.5 mg of active ingredient/mL or 0.5 g/L), four replicates per rate. In a fume cabinet, one milliliter of a test solution was applied to a 9 cm Whatman® 2 qualitative filter paper using a calibrated pipette. The application started at the center of the filter paper with individual drops being applied in an outward circular motion so that the entire filter paper was uniformly treated. Acetone only (one mL) was applied in the same manner to provide an untreated control (UTC). The treated filter papers were allowed to dry for two hours. The dried, treated or untreated filter paper was placed into a plastic Petri dish and ten late instar, healthy and active German cockroaches (Blattella germanica) were momentarily immobilized using carbon dioxide and then placed onto the filter paper. The lid of each Petri dish was put on to contain the cockroaches. The Petri dishes were maintained at a temperature of 25° C. to 30° C. at ambient relative humidity out of direct sunlight. German cockroach mortality was assessed after 24 hours by counting the number of alive and the number of knocked down/dead cockroaches.\n(§3) In order to compare the pesticidal effectiveness of the individual and combination treatments the LC 50 and LC 90 values (lethal concentration in ppm that would effectively knock down/kill 50% or 90% of the test pests) were calculated. In calculating the LC values for the various mixtures of bifenthrin and fipronil, probit analysis was conducted on the fipronil concentration of the mixture. […] The values calculated from the data of Table 1 are in Table 1A below."}, "[2]": {"tested_on": "American cockroach (Periplaneta americana)", "test": "American cockroach mortality on treated filter paper", "assay_type": "in vivo", "conditions": "24 h", "description": "as §1, §2\nThe compositions of the present invention were tested for American cockroach (Periplaneta americana) activity in the following manner:\nTest solutions were made by dissolving technical grade bifenthrin and fipronil in acetone to provide appropriate rates of application of bifenthrin and fipronil alone, as well as combinations of bifenthrin and fipronil. The active ingredient concentrations tested were from 10 part per million (0.01 mg of active ingredient/mL or 0.01 g/L) to 1000 parts per million (1.0 mg of active ingredient/mL or 1.0 g/L), four replicates per rate. In a fume cabinet, one milliliter of a test solution was applied to a 9 cm Whatman® 2 qualitative filter paper using a calibrated pipette. The application started at the center of the filter paper with individual drops being applied in an outward circular motion so that the entire filter paper was uniformly treated. Acetone only (one mL) was applied in the same manner to provide an untreated control (UTC). The treated filter papers were allowed to dry for two hours. The dried, treated or untreated filter paper was placed into a plastic cup having a base diameter of 90 mm, in which the upper portion of the walls of the plastic cup were coated with a fluoropolymer resin (PFTE-30) insect barrier (Fluoron® available from BioQuip Products Inc.) to prevent the insects from climbing out of the container. Ten late instar, healthy and active American cockroaches (Periplaneta americana) were momentarily immobilized using carbon dioxide and then placed onto the filter paper. The top of the plastic containers were covered with gauze to contain the cockroaches. The plastic containers were maintained at a temperature of 25° C. to 30° C. at ambient relative humidity out of direct sunlight. American cockroach mortality was assessed after 24 hours by counting the number of alive and the number of knocked down/dead cockroaches.\nas §3, with “the bifenthrin in” for “the fipronil”, “Table 2” for “Table 1”, “Table 2A” for “Table 1A”"}, "[3]": {"tested_on": "black house spider (Badumna insignis)", "test": "Black house spider mortality on treated pine plywood", "assay_type": "in vivo", "conditions": "suspension concentrate diluted in water, 24 h", "description": "as §1, §2\nThe compositions of the present invention were tested for black house spider (Badumna insignis) activity in the following manner:\nFormulations of the test compounds were made as follows: • 1).\nThe testing was conducted on pine plywood surfaces that had dimensions of 20 cm×20 cm. The above formulations were diluted in water to achieve the desired concentration rate in grams of active ingredient per liter prior to application to the pine plywood. Each treatment was applied using an airbrush sprayer and compressed air as the propellant. The equipment was calibrated prior to use and the treatments were applied to the pine plywood surfaces at a rate of 1 L/10 m^2 (4 mL of final test solution per 20 cm×20 cm pine plywood surface)'. For example, in order to obtain a application rate of […] of active ingredient per 10 m^2, 1.25 mL of the fipronil formulation 1) which contained 100 gram per liter suspension concentrate formulation of fipronil, was diluted in 1 liter of water to make a final test solution. Four mL of the final test solution was sprayed onto the pine plywood surface. The treated pine plywood was allowed to air dry at ambient temperature by storing horizontally away from direct sunlight. Three black house spiders, medium to large in size collected from the field 1 to 2 days prior to testing, were placed separately under untreated portion cups (7 cm diameter by 7 cm deep) on the treated pine plywood surfaces. The untreated portion cups provided an opportunity for the spiders to seek an untreated area. The spiders were assessed after 24 hours exposure by counting the number of alive and the number of knocked down/dead spiders. There were three replications of each treatment."}, "[4]": {"conditions": "probit analysis of Table 1 data, mixtures as bifenthrin:fipronil"}, "[5]": {"conditions": "probit analysis of Table 2 data, mixtures as bifenthrin:fipronil"}}}
{"smiles": "Cc1c(COC(=O)[C@@H]2[C@H](/C=C(\\Cl)C(F)(F)F)C2(C)C)cccc1-c1ccccc1", "note": "(racemic) [Bifenthrin, 2-methylbiphenyl-3-ylmethyl (Z)-(1RS)-cis-3-(2-chloro-3,3,3-trifluoroprop-1-enyl)-2,2-dimethylcyclopropanecarboxylate]", "values": [{"measurement": "% Observed Control", "setting": "[1]; 100 ppm (0.1 mg/mL)", "value": 2.5, "unit": "%"}, {"measurement": "Mortality Rep 1 dead/alive", "setting": "[1]; 100 ppm (0.1 mg/mL)", "value": "0/10"}, {"measurement": "Mortality Rep 2 dead/alive", "setting": "[1]; 100 ppm (0.1 mg/mL)", "value": "0/10"}, {"measurement": "Mortality Rep 3 dead/alive", "setting": "[1]; 100 ppm (0.1 mg/mL)", "value": "0/10"}, {"measurement": "Mortality Rep 4 dead/alive", "setting": "[1]; 100 ppm (0.1 mg/mL)", "value": "1/9"}, {"measurement": "% Observed Control", "setting": "[1]; 250 ppm (0.25 mg/mL)", "value": 90, "unit": "%"}, {"measurement": "Mortality Rep 1 dead/alive", "setting": "[1]; 250 ppm (0.25 mg/mL)", "value": "9/1"}, {"measurement": "Mortality Rep 2 dead/alive", "setting": "[1]; 250 ppm (0.25 mg/mL)", "value": "9/1"}, {"measurement": "Mortality Rep 3 dead/alive", "setting": "[1]; 250 ppm (0.25 mg/mL)", "value": "9/1"}, {"measurement": "Mortality Rep 4 dead/alive", "setting": "[1]; 250 ppm (0.25 mg/mL)", "value": "9/1"}, {"measurement": "% Observed Control", "setting": "[1]; 500 ppm (0.5 mg/mL)", "value": 97.5, "unit": "%"}, {"measurement": "Mortality Rep 1 dead/alive", "setting": "[1]; 500 ppm (0.5 mg/mL)", "value": "10/0"}, {"measurement": "Mortality Rep 2 dead/alive", "setting": "[1]; 500 ppm (0.5 mg/mL)", "value": "10/0"}, {"measurement": "Mortality Rep 3 dead/alive", "setting": "[1]; 500 ppm (0.5 mg/mL)", "value": "10/0"}, {"measurement": "Mortality Rep 4 dead/alive", "setting": "[1]; 500 ppm (0.5 mg/mL)", "value": "9/1"}, {"measurement": "LC 50", "setting": "[1]; [4]", "value": 193, "unit": "ppm"}, {"measurement": "LC 90", "setting": "[1]; [4]", "value": 301, "unit": "ppm"}, {"measurement": "% Observed Control", "setting": "[2]; 100 ppm (0.1 mg/mL)", "value": 2.5, "unit": "%"}, {"measurement": "Mortality Rep 1 dead/alive", "setting": "[2]; 100 ppm (0.1 mg/mL)", "value": "1/9"}, {"measurement": "Mortality Rep 2 dead/alive", "setting": "[2]; 100 ppm (0.1 mg/mL)", "value": "0/10"}, {"measurement": "Mortality Rep 3 dead/alive", "setting": "[2]; 100 ppm (0.1 mg/mL)", "value": "0/10"}, {"measurement": "Mortality Rep 4 dead/alive", "setting": "[2]; 100 ppm (0.1 mg/mL)", "value": "0/10"}, {"measurement": "% Observed Control", "setting": "[2]; 125 ppm (0.125 mg/mL)", "value": 45, "unit": "%"}, {"measurement": "Mortality Rep 1 dead/alive", "setting": "[2]; 125 ppm (0.125 mg/mL)", "value": "1/9"}, {"measurement": "Mortality Rep 2 dead/alive", "setting": "[2]; 125 ppm (0.125 mg/mL)", "value": "10/0"}, {"measurement": "Mortality Rep 3 dead/alive", "setting": "[2]; 125 ppm (0.125 mg/mL)", "value": "7/3"}, {"measurement": "Mortality Rep 4 dead/alive", "setting": "[2]; 125 ppm (0.125 mg/mL)", "value": "0/10"}, {"measurement": "% Observed Control", "setting": "[2]; 200 ppm (0.2 mg/mL)", "value": 10, "unit": "%"}, {"measurement": "Mortality Rep 1 dead/alive", "setting": "[2]; 200 ppm (0.2 mg/mL)", "value": "0/10"}, {"measurement": "Mortality Rep 2 dead/alive", "setting": "[2]; 200 ppm (0.2 mg/mL)", "value": "0/10"}, {"measurement": "Mortality Rep 3 dead/alive", "setting": "[2]; 200 ppm (0.2 mg/mL)", "value": "0/10"}, {"measurement": "Mortality Rep 4 dead/alive", "setting": "[2]; 200 ppm (0.2 mg/mL)", "value": "4/6"}, {"measurement": "% Observed Control", "setting": "[2]; 250 ppm (0.25 mg/mL)", "value": 12.5, "unit": "%"}, {"measurement": "Mortality Rep 1 dead/alive", "setting": "[2]; 250 ppm (0.25 mg/mL)", "value": "1/9"}, {"measurement": "Mortality Rep 2 dead/alive", "setting": "[2]; 250 ppm (0.25 mg/mL)", "value": "1/9"}, {"measurement": "Mortality Rep 3 dead/alive", "setting": "[2]; 250 ppm (0.25 mg/mL)", "value": "2/8"}, {"measurement": "Mortality Rep 4 dead/alive", "setting": "[2]; 250 ppm (0.25 mg/mL)", "value": "1/9"}, {"measurement": "% Observed Control", "setting": "[2]; 400 ppm (0.4 mg/mL)", "value": 22.5, "unit": "%"}, {"measurement": "Mortality Rep 1 dead/alive", "setting": "[2]; 400 ppm (0.4 mg/mL)", "value": "1/9"}, {"measurement": "Mortality Rep 2 dead/alive", "setting": "[2]; 400 ppm (0.4 mg/mL)", "value": "2/8"}, {"measurement": "Mortality Rep 3 dead/alive", "setting": "[2]; 400 ppm (0.4 mg/mL)", "value": "4/6"}, {"measurement": "Mortality Rep 4 dead/alive", "setting": "[2]; 400 ppm (0.4 mg/mL)", "value": "2/8"}, {"measurement": "% Observed Control", "setting": "[2]; 500 ppm (0.5 mg/mL)", "value": 25, "unit": "%"}, {"measurement": "Mortality Rep 1 dead/alive", "setting": "[2]; 500 ppm (0.5 mg/mL)", "value": "0/10"}, {"measurement": "Mortality Rep 2 dead/alive", "setting": "[2]; 500 ppm (0.5 mg/mL)", "value": "5/5"}, {"measurement": "Mortality Rep 3 dead/alive", "setting": "[2]; 500 ppm (0.5 mg/mL)", "value": "2/8"}, {"measurement": "Mortality Rep 4 dead/alive", "setting": "[2]; 500 ppm (0.5 mg/mL)", "value": "3/7"}, {"measurement": "% Observed Control", "setting": "[2]; 1000 ppm (1.0 mg/mL)", "value": 97.5, "unit": "%"}, {"measurement": "Mortality Rep 1 dead/alive", "setting": "[2]; 1000 ppm (1.0 mg/mL)", "value": "10/0"}, {"measurement": "Mortality Rep 2 dead/alive", "setting": "[2]; 1000 ppm (1.0 mg/mL)", "value": "10/0"}, {"measurement": "Mortality Rep 3 dead/alive", "setting": "[2]; 1000 ppm (1.0 mg/mL)", "value": "10/0"}, {"measurement": "Mortality Rep 4 dead/alive", "setting": "[2]; 1000 ppm (1.0 mg/mL)", "value": "9/1"}, {"measurement": "LC 50", "setting": "[2]; [5]", "value": 906, "unit": "ppm"}, {"measurement": "LC 90", "setting": "[2]; [5]", "value": 1618, "unit": "ppm"}, {"measurement": "Observed % Control", "setting": "[3]; 0.25 g ai/L at 1 L/10 m^2", "value": 88.9, "unit": "%"}, {"measurement": "Observed % Control", "setting": "[3]; 0.5 g ai/L at 1 L/10 m^2", "value": 88.9, "unit": "%"}]}
